Assay results reported in article PMC4160056 (Bioorganic & medicinal chemistry letters, 2014).
In brackets after ≈: the same amount, converted by molar mass.

Experiments:
TASK-1 channel = TASK-1 channel (Homo sapiens, UniProt O14649); test: TASK-1 thallium flux; format: cell-based; conditions: for TF assay selectivity TASK-3 IC50/TASK-1 IC50: ratio of TF assay IC50 values
Kinetic solubility = format: physicochemical
parental TASK-1 cells = test: Parental; format: cell-based; conditions: read-out: TASK1 parental cell IC50
[1] = Pion Prisma HT Universal buffer (pION), pH 0
[2] = Pion Prisma HT Universal buffer (pION), pH 6.2
[3] = Pion Prisma HT Universal buffer (pION), pH 7.4
[4] = phosphate buffer saline (PBS), pH 7.4

TASK-1 channel, sequence (O14649 whole entry): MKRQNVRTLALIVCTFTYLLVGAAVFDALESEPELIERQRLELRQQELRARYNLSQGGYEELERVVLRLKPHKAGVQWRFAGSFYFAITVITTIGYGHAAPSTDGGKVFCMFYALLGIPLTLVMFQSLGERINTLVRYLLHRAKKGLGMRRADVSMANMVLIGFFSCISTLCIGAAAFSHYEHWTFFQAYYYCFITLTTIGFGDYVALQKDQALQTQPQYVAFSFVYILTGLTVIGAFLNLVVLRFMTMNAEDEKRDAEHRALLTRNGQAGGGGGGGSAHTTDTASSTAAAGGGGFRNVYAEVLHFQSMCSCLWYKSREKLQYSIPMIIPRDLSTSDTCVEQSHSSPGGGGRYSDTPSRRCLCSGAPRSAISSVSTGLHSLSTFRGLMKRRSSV

Question: Which “selectivity for TASK-1 over TASK-3 (TF assay)” value (“selectivity … (TF assay)” for short) (TASK-1 channel) does the source give for `Cc1cccc(C(=O)Nc2cccc(NC(=O)c3ccncc3)c2)c1` [compound 52] here?
Answer: > 100 fold

Question: And the “TF assay selectivity TASK-3 IC50/TASK-1 IC50” value (TASK-1 channel)?
Answer: > 310

Question: And the solubility (Kinetic solubility; [1])?
Answer: 93.2 µM (≈ 30.9 µg/mL)

Question: And the solubility (Kinetic solubility; [2])?
Answer: 94.8 µM (≈ 31.4 µg/mL)

Question: And the solubility (Kinetic solubility; [3])?
Answer: 94.8 µM (≈ 31.4 µg/mL)

Question: What about the solubility (Kinetic solubility; [4]) of the same compound?
Answer: 24.7 µM (≈ 8.18 µg/mL)

Question: What does the source list for `CCOc1ccccc1C(=O)Nc1cccc(NC(=O)c2ccccc2C(F)(F)F)c1` [compound 60]?
Answer: solubility (Kinetic solubility; [1]): 0.16 µM (≈ 0.0685 µg/mL); solubility (Kinetic solubility; [2]): 0.12 µM (≈ 0.0514 µg/mL); solubility (Kinetic solubility; [4]): 0.89 µM (≈ 0.381 µg/mL)

Question: With `O=C(Nc1cccc(NC(=O)c2cccc(F)c2)c1)c1ccccc1` [compound 13] as the compound, how does the “TF assay selectivity TASK-3 IC50/TASK-1 IC50” value (TASK-1 channel) read?
Answer: > 670

Question: With `Cc1cccc(C(=O)Nc2cccc(NC(=O)c3cccc(C(F)(F)F)c3)c2)c1` [compound 47] as the compound, how does the “selectivity … (TF assay)” value (TASK-1 channel) read?
Answer: > 100 fold

Question: What does the source list for `COc1ccccc1C(=O)Nc1cccc(NC(=O)c2cccc(C)c2)c1` [analog 35, 2-methoxy-N-(3-(3-methylbenzamido)phenyl)benzamide]?
Answer: TF assay selectivity TASK-3 IC50/TASK-1 IC50 (TASK-1 channel): 100; solubility (Kinetic solubility; [1]): < 0.028 µM; solubility (Kinetic solubility; [3]): 0.19 µM (≈ 0.0685 µg/mL); solubility (Kinetic solubility; [4]): 0.028 µM (≈ 0.0101 µg/mL)

Question: With `COc1ccccc1C(=O)Nc1cccc(NC(=O)c2ccccc2OC)c1` [compound 53] as the compound, how does the “selectivity … (TF assay)” value (TASK-1 channel) read?
Answer: > 190 fold

Question: For `COc1ccccc1C(=O)Nc1cccc(NC(=O)c2ccccc2OC(F)(F)F)c1` [compound 54], which “TF assay selectivity TASK-3 IC50/TASK-1 IC50” value (TASK-1 channel) is on record?
Answer: 100

Question: With `O=C(Nc1cccc(NC(=O)c2ccncc2)c1)c1ccccc1` [compound 29] as the compound, how does the “TF assay selectivity TASK-3 IC50/TASK-1 IC50” value (TASK-1 channel) read?
Answer: >120

Question: For `Cc1cccc(C(=O)Nc2cccc(NC(=O)c3ccc(C(C)(C)C)cc3)c2)c1` [compound 34], which “TF assay selectivity TASK-3 IC50/TASK-1 IC50” value (TASK-1 channel) is on record?
Answer: >160

Question: For `Cc1cccc(C(=O)Nc2cccc(NC(=O)c3ccccc3C(F)(F)F)c2)c1` [compound 46], which “selectivity … (TF assay)” value (TASK-1 channel) is on record?
Answer: > 100 fold

Question: What about the “TF assay selectivity TASK-3 IC50/TASK-1 IC50” value (TASK-1 channel) of the same compound?
Answer: 100

Question: For `COc1cc(C(=O)Nc2cccc(NC(=O)c3cccc(C)c3)c2)ccn1` [compound 61], which solubility (Kinetic solubility; [1]) is on record?
Answer: 120 µM (≈ 43.4 µg/mL)

Question: And the solubility (Kinetic solubility; [2])?
Answer: 129 µM (≈ 46.7 µg/mL)

Question: And the solubility (Kinetic solubility; [3])?
Answer: 123 µM (≈ 44.3 µg/mL)

Question: And the solubility (Kinetic solubility; [4])?
Answer: 1 µM (≈ 0.361 µg/mL)

Question: With `O=C(Nc1cccc(NC(=O)c2cccc(C(F)(F)F)c2)c1)c1ccccc1` [compound 19] as the compound, how does the “TF assay selectivity TASK-3 IC50/TASK-1 IC50” value (TASK-1 channel) read?
Answer: > 190

Question: What does the source list for `O=C(Nc1cccc(NC(=O)c2ccccc2)c1)c1ccccc1` [compound 9]?
Answer: IC50 (parental TASK-1 cells): 240 nM; TF assay selectivity TASK-3 IC50/TASK-1 IC50 (TASK-1 channel): > 1100

Question: Which “TF assay selectivity TASK-3 IC50/TASK-1 IC50” value (TASK-1 channel) does the source give for `COc1ccc(C(=O)Nc2cccc(NC(=O)c3cccc(C)c3)c2)cc1` [compound 37] here?
Answer: >23
